Test results reported in ChEMBL document CHEMBL6127070, “Design, synthesis, and molecular dynamic simulations of some novel benzo[d]thiazoles with anti-virulence activity against Pseudomonas aeruginosa” (Eur J Med Chem, 2024).
Converted amounts (≈) assume the structure as drawn. The source made the active and inactive calls. The rule behind the calls is not given here.

Assays:
Pseudomonas aeruginosa [1] = assay: Inhibition of biofilm formation in Pseudomonas aeruginosa at MIC incubated for 48 hrs by crystal violet staining based analysis relative to control; format: functional
Pseudomonas aeruginosa [2] = assay: Inhibition of biofilm formation in Pseudomonas aeruginosa assessed as absorbance by measuring OD at 570 nm at sub-MIC by crystal violet staining based analysis (reference value: 0.635 +/- 0.014); format: functional
Pseudomonas aeruginosa [3] = assay: Antibacterial activity against Pseudomonas aeruginosa assessed as 1/4 MIC by CLSI protocol based broth microdilution method; format: functional
Pseudomonas aeruginosa [4] = assay: Antivirulence activity in Pseudomonas aeruginosa assessed as inhibition of rhamnolipids production at sub-MIC by spectrophotometric method relative to control; format: functional
Pseudomonas aeruginosa [5] = assay: Antivirulence activity in Pseudomonas aeruginosa assessed as inhibition of pyocyanin production by measuring OD at […] at sub-MIC by chloroform-HCl extraction method relative to control; format: functional
Pseudomonas aeruginosa [6] = assay: Antibacterial activity against Pseudomonas aeruginosa by CLSI protocol based broth microdilution method; format: functional
Pseudomonas aeruginosa [7] = assay: Antibacterial activity against Pseudomonas aeruginosa assessed as effect on bacterial growth at 16 microg/ml incubated for 24 hrs by growth curve analysis; format: functional, organism-based; conditions: dose 16.0 µg/ml
Pseudomonas aeruginosa [8] = assay: Antivirulence activity in Pseudomonas aeruginosa assessed as inhibition of pyocyanin production at sub-MIC by chloroform-HCl extraction method relative to control; format: functional
Pseudomonas aeruginosa [9] = assay: Inhibition of biofilm formation in Pseudomonas aeruginosa at sub-MIC by crystal violet staining based analysis relative to control; format: functional
[10] = Inhibition of quorum sensing system in Pseudomonas aeruginosa MH602 transfected with lasB promoter expressing gfp-ASV at 250 uM incubated for 20 hrs by microplate reader analysis relative to control
[11] = Inhibition of quorum sensing system in Pseudomonas aeruginosa MH602 transfected with lasB promoter expressing gfp-ASV at 125 uM incubated for 20 hrs by microplate reader analysis relative to control
[12] = Inhibition of quorum sensing system in Pseudomonas aeruginosa MH602 transfected with lasB promoter expressing gfp-ASV at 62.5 uM incubated for 20 hrs by microplate reader analysis relative to control
Pseudomonas aeruginosa [13] = assay: Antibiofilm activity against Pseudomonas aeruginosa assessed as inhibition of biofilm biomass at 300 microg/ml measured after 48 hrs relative to control; format: functional
[14] = Inhibition of quorum sensing system in Pseudomonas aeruginosa transfected with lasB-gfp reporter gene incubated for 20 hrs by fluorescence based multilabel plate reader analysis
Pseudomonas aeruginosa [15] = assay: Inhibition of biofilm formation in Pseudomonas aeruginosa PAO1 at 50 uM incubated for 24 hrs by crystal violet staining based analysis relative to control; format: functional
[16] = Inhibition of quorum sensing system in Pseudomonas aeruginosa PAO1 transfected with lasB-gfp reporter gene incubated for >=12 hrs by fluorescence based microplate reader analysis
Pseudomonas aeruginosa [17] = assay: Inhibition of biofilm formation in Pseudomonas aeruginosa PAO1 at 64 microg/ml relative to control; format: functional
Pseudomonas aeruginosa [18] = assay: Antibacterial activity against Pseudomonas aeruginosa assessed as bacterial mortality in presence of clarithromycin relative to control; format: functional
[19] = Inhibition of quorum sensing system in Pseudomonas aeruginosa PAO1 assessed as reduction in pyocyanin production at 256 microg/ml relative to control; conditions: dose 256.0 µg/ml
Pseudomonas aeruginosa [20] = assay: Antibacterial activity against Pseudomonas aeruginosa assessed as bacterial mortality in presence of ciprofloxacin relative to control; format: functional

## COC(=O)c1ccc(/N=N/c2c(N)nn3c(N)c(C#N)c(-c4ccc(N(C)C)cc4)nc23)cc1
Pseudomonas aeruginosa [1]
  inhibition (INH): 69%

## CC[C@H]1OC(=O)[C@H](C)[C@@H](O[C@H]2C[C@@](C)(OC)[C@@H](O)[C@H](C)O2)[C@H](C)[C@@H](O[C@@H]2O[C@H](C)C[C@H](N(C)C)[C@H]2O)[C@](C)(O)C[C@@H](C)CN(C)[C@H](C)[C@@H](O)[C@]1(C)O [AZITHROMYCIN]
Pseudomonas aeruginosa [2]
  OD: 0.307
Pseudomonas aeruginosa [3]
  MIC: 20.1 µM (≈ 15.1 µg/mL)
Pseudomonas aeruginosa [4]
  inhibition (INH): 47.4%
Pseudomonas aeruginosa [5]
  OD: 0.216
Pseudomonas aeruginosa [6]
  SubMIC: 16 µg/mL
Pseudomonas aeruginosa [6]; Pseudomonas aeruginosa
  MIC: 85.4 µM (≈ 64 µg/mL)
Pseudomonas aeruginosa [7]
  Activity: inactive
Pseudomonas aeruginosa [8]
  inhibition (INH): 51.5%
Pseudomonas aeruginosa [9]
  inhibition (INH): 21.7%

## O=C(Cn1cc(-c2ccc([N+](=O)[O-])cc2)nn1)Nc1nc2ccccc2[nH]1
[10]
  inhibition: 68.2%
[11]
  inhibition: 67.1%
[12]
  inhibition: 63.7%

## COc1ccc(C(=O)CSc2nc3ccccc3s2)c(OC)c1
Pseudomonas aeruginosa [13]
  inhibition at 300 µg/mL: 70%
[14]
  IC50: 45.5 µg/mL (≈ 132 µM)

## [O-][S+](Cc1ccc(Cl)cc1)c1nc2cc(Cl)ccc2o1 (stereo unspecified)
Pseudomonas aeruginosa [15]
  inhibition at 50 µM: 46.1%
[16]
  IC50: 2080 nM

## COc1ccc(OCCCCCCCC(=O)NNC(=O)Cn2c(=O)oc3ncccc32)cc1
Pseudomonas aeruginosa [17]
  inhibition at 64 µg/mL: 40%
Pseudomonas aeruginosa [18]
  mortality: 49.79%
[19]
  inhibition: 46.9%
Pseudomonas aeruginosa [20]
  mortality: 48.27%
